For one test, the target named is T1, guinea pig trachea (Cavia porcellus, UniProt A0A286Y4I8).
T1 construct: the trachea is rapidly removed and then cut into two-cartilage rings; from tissue; host or cells: guinea pig trachea, two-cartilage rings (isolated organ)
T1 sequence (A0A286Y4I8 1-347): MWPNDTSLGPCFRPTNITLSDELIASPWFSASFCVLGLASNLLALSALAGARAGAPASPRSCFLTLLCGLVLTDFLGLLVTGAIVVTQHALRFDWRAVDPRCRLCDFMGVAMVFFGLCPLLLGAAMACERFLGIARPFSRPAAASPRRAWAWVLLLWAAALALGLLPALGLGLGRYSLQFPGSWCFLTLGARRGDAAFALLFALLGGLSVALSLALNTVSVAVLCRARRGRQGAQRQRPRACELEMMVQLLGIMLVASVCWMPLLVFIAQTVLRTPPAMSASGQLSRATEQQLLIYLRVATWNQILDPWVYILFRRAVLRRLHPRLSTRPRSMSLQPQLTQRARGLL
Briefly: Determination of the pA2 values on guinea pig trachea (U46619-induced contraction). The class given is cell-based. To be noted: isolated guinea pig trachea rings, 37° C., agonist U46619, antagonist contact 20 minutes. On the procedure:
Determination of the pA2 values on guinea pig trachea
Male albino guinea pigs weighing 400-500 grams were sacrificed by a blow to the back of the neck and by cervical elongation. The throat is opened and the trachea is rapidly removed and then cut into two-cartilage rings. These rings are mounted between two hooks in cells thermostated at 37° C. containing physiological fluid (composition in mM:NaCl 118; NaHCO3 25; glucose 10; KCl 4.7; CaCl2 1.25; MgSO4 1.19; KH2 PO4 1.14).
A 95% O2 /5% CO2 mixture is bubbled through the physiological solution. The lower hook constitutes the fixed point while the upper hook is connected to an isometric strength gage. The tissues are placed under a baseline tension of 3.5 grams. The test pharmacological substances are prepared immediately before use. The drugs are solubilized in water or in dimethyl sulfoxide.
After mounting, the preparations are left standing for 90 minutes, rinses being performed every 30 minutes. After readjustment of the baseline tension, a contraction produced by a single dose of agonist (U46619; 10^-5 M) is produced in order to make the following contractions consist. After washing and return to the baseline, a first effect/concentration curve is established by adding cumulative doses of U46619 (10^-9 M to 10^-5 M, with semi-log spacing between the doses). This first experiment enables the "control" 50% effective concentration (EC50) to be calculated.
This EC50 is routinely calculated in the following manner: the tension values are first converted to percentages relative to the maximum effect, these percentages then being plotted on a graph with the percentages as ordinates and the log (concentration) values as abscissae. A linear regression is then carried out on the points lying between 10% and 90% (which corresponds to the linear portion of the sigmoid curve). The concentration corresponding to half the maximum effect (50%) may be readily calculated using the parameters of the linear plot.
After washing and return to the baseline, the organ is brought into contact with the antagonist ([…]) for 20 minutes. A second effect/concentration curve is then established in the presence of the antagonist, and the "treated" EC50 can then be calculated. All the elements enabling the pA2 (competitive antagonism) or pD2 (non-competitive antagonism) to be calculated are thereby obtained.
The pA2 (which represents the negative logarithm of the antagonist concentration in the presence of which twice as much agonist is required in order to obtain the same effect) is determined by plotting on a graph the values of log ((L/1)-1) with respect to log (antagonist concentration), where L=effect in presence of antagonist and 1=control effect.

The target of the next test is T2, thromboxane synthase (Oryctolagus cuniculus, UniProt G1TAZ9).
T2 construct: from tissue; host or cells: rabbit whole blood (clotting; by own knowledge the enzyme is chiefly that of platelets)
T2 sequence (G1TAZ9 1-530): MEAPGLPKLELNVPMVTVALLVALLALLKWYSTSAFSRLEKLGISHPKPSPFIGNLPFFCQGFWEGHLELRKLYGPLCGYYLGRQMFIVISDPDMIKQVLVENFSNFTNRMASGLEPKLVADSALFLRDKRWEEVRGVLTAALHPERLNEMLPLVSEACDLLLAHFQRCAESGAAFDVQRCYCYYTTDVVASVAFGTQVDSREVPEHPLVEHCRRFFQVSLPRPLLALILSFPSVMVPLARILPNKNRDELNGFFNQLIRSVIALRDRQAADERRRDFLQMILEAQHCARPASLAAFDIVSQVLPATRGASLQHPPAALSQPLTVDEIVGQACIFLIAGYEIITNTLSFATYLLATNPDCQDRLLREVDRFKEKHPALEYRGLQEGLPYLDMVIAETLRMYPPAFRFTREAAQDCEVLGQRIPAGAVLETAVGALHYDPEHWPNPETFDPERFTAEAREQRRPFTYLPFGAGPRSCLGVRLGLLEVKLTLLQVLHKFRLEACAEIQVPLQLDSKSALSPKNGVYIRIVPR
Briefly: Anti-thromboxane synthase activity (TXB2 levels in serum of rabbit blood, radio immunoassay). The class given is cell-based. The conditions noted are these: 37° C., one hour, serum TXB2 by radio immunoassay, read-out: IC50, inhibition of TXB2 level. How it is done:
Anti-thromboxane synthase activity
Albino New Zealand rabbits weighing approximately 2 kg are used. These rabbits are anesthetized with pentobarbital (30 mg/kg i.v.). Blood is collected via carotid catheter in dry glass tubes, in the proportion of 1 ml per tube, in the presence or absence of different concentrations of inhibitor. The inhibitors are diluted in physiological fluid in order to avoid possible hemolysis.
The tubes are placed in a water bath at 37° C. for one hour. After coagulation, the tubes are cooled to 4° C. and centrifuged at 2000 g for 20 minutes in order to separate the serum from the clot. The serum may be frozen at -20° C. for 2 weeks for a subsequent assay.
The levels of TXB2, the stable metabolite of TXA2, in the serum are determined by radio immunoassay.
The levels obtained in the presence of the different doses of inhibitor are converted to a percentage inhibition relative to the baseline level of TXB2, in order to calculate the IC50 of the inhibitor. The latter is obtained by non-linear regression using the following equation (Michaelis L, Menten ML, Die Kinetik der Invertinwirkung, Biochem. Zeitschrifft, 1913, 49, 333-369):
I=(Imax * C^n) / (IC^n +C^n)
C=inhibitor concentration

The test system of test [1] is thromboxane receptor (increase in tracheal pressure caused by U46619). As to the kind of experiment: IC50 on tracheal pressure in guinea pigs (U46619-induced bronchoconstriction). The class given is in vivo, guinea pig. The conditions noted are these: anesthetized guinea pigs, antagonist injected 5 minutes before U46619 (2 μg/kg i.v.); for ED50: Cavia porcellus, iv, 5 min, read-out: IC50, dose of antagonist that inhibits by 50% the increase in tracheal pressure caused by U46619. From the text: IC50 on tracheal pressure in guinea pigs
Male albino guinea pigs (350-400 g) subjected to an 18-hour water diet are anesthetized with ethyl carbamate (1.25 g/kg i.p.). A catheter is introduced into the carotid artery in order to measure the arterial blood pressure by means of a pressure cell. A second catheter is introduced into the jugular vein and is used to inject the pharmacological substances. The trachea is cannulated and the guinea pig is placed in assisted respiration by means of a respirator. The animal's temperature is maintained at 37° C. using a thermostated blanket. A needle pushed into the tracheal cannula is connected to a pressure cell and enables the tracheal pressure to be recorded.
The guinea pigs are pretreated with d-tubocurarine (1 mg/kg i.v.) and with indomethacin (10 mg/kg i.v.). Injected at a dose of 2 μg/kg i.v., U46619 produces a bronchoconstriction which leads to an increase in tracheal pressure and induces an increase in arterial blood pressure. The responses to U46619 are reversible and reproducible if the injections are carried out every 10 minutes.
The thromboxane receptor antagonists are injected 5 minutes before the injections of U46619. The dose of antagonist that inhibits by 50% the increase in tracheal pressure caused by U46619 is determined (IC50).

For test [2], the system named is platelet aggregation response induced by U46619 (TXA2 receptor agonist). Briefly: Platelet aggregation: inhibition of U46619-induced aggregation of rabbit platelet-rich plasma. In kind it is cell-based. To be noted: Oryctolagus cuniculus, rabbit PRP, 37° C., antagonist 3 min before U46619 (1.2 μM), read-out: IC50, concentration inducing 50% inhibition of the aggregation response induced by U46619. How it is done:
Rabbits (2-3 kg) are anesthetized with pentobarbital sodium (30 mg/kg i.v.). After cannulation of the left carotid artery, blood is withdrawn onto sodium citrate (0.109M) (1 vol. of citrate per 9 vol. of blood).
Platelet-rich plasma (PRP) is obtained by centrifugation (20° C.) at 250 g for 20 minutes, and platelet- poor plasma (PPP) by centrifugation at 1000 g (10 min). The number of platelets (PL) in the PRP is adjusted to 300-350,000 PL/mm^3 by dilution with autologous PPP. The PRP is stored at the temperature of the room until the time of the test, and is used within 4 hours following withdrawal.
Platelet aggregation is carried out at 37° C. in siliconed glass tubes using an aggregometer. The PRP and PL are stirred at 1000 rpm (revolutions per minute). In order to study the activity of thromboxane antagonists, the PRP is incubated for 1 min at 37° C., and the antagonist is then added for a period of 3 min before addition of the agonist U46619 (1.2 μM). The final volume in the cell is then 250 μl. The intensity of platelet aggregation is established by taking the maximum amplitude of the aggregation plots and is expressed as a percentage light transmission (% T). The activity of the antagonists is expressed as IC50, that is to say the concentration of the substance which induces a 50% inhibition of the aggregation response induced by U46619.

pIC50: −log10 of the molar value. Where a name gives a salt, the structure may show the parent alone.

With `COc1cccc([C@@H]2[C@H](C/C=C\CCC(=O)O)CCN2S(=O)(=O)c2ccc(F)cc2)c1` (relative stereo) [Example 1, (4Z)-6-[(2α,3α)-1-(4-Fluorophenylsulfonyl)-2-(3-methoxyphenyl)-3-pyrrolidinyl]-4-hexenoic acid sodium salt], the Kb (commonly the affinity of an antagonist, worked out from how it opposes an agonist) at guinea pig trachea was 0.0631 µM. As to `O=C(O)CC/C=C\C[C@@H]1CCN(S(=O)(=O)c2ccc(F)cc2)[C@@H]1c1cccnc1` (relative stereo) [Example 2, (4Z)-6-[(2α,3α)-1-(4-Fluorophenylsulfonyl)-2-(3-pyridyl)-3-pyrrolidinyl]-4-hexenoic acid sodium salt], at thromboxane synthase, the pIC50 was 3.70. For `O=C(O)CC/C=C\C[C@@H]1CCN(S(=O)(=O)c2ccc(F)cc2)[C@@H]1c1cccc(O)c1` (relative stereo) [Example 14, (4Z)-6-[(2α,3α)-1-(4-Fluorophenylsulfonyl)-2-(3-hydroxyphenyl)-3-pyrrolidinyl]-4-hexenoic acid sodium salt], the ED50 in test [1] came out at 0.07 mg/kg. Besides, the Kb on guinea pig trachea is 0.01 µM. Besides, the pIC50 in test [2] is 4.70. For `O=C(O)CCC/C=C\C[C@@H]1CCN(S(=O)(=O)c2ccc(F)cc2)[C@@H]1c1cccc(O)c1` (relative stereo) [Example 15, (5Z)-7-[(2α,3α)-1-(4-Fluorophenylsulfonyl)-2-(3-hydroxyphenyl)-3-pyrrolidinyl]-5-heptenoic acid sodium salt], the ED50 in test [1] is 0.16 mg/kg. The molecule also had a Kb on guinea pig trachea of 0.0398 µM. For the same molecule, the pIC50 in test [2] is 4.70. `O=C(O)CCCCC[C@@H]1CCN(S(=O)(=O)c2ccc(F)cc2)[C@@H]1c1cccnc1` (relative stereo) [Example 20, 6-[(2α,3α)-1-(4-Fluorophenylsulfonyl)-2-(3-pyridyl)-3-pyrrolidinyl) hexanoic acid sodium salt]: the pIC50 on thromboxane synthase is 4.22. Consider `O=C(O)CC/C=C\C[C@@H]1CCN(Cc2cccnc2)[C@@H]1c1ccccc1` (relative stereo) [Example 21, (4Z)-6-{(2α,3α)-1-[(3-Pyridyl)methyl]-2-phenyl-3-pyrrolidinyl}-4-hexenoic acid sodium salt], for which, in test [1], the ED50 worked out at 0.17 mg/kg. Besides, on guinea pig trachea, the Kb was 0.00182 µM. The pIC50 on thromboxane synthase is 5.07. Consider `O=C(O)CCCCC[C@@H]1CCN(Cc2cccnc2)[C@@H]1c1ccccc1` (relative stereo) [Example 22, 6-{(2α,3α)-1-[(3-Pyridyl)methyl]-2-phenyl-3-pyrrolidinyl}hexanoic acid sodium salt], for which the antagonist dissociation constant (Kb) at guinea pig trachea is 7.08 µM. This lies in the single-digit micromolar range. For `O=C(O)CC/C=C\C[C@@H]1CCN(Cc2cccnc2)[C@@H]1c1cccc(O)c1` (relative stereo) [Example 26, (4Z)-6-{(2α,3α)-1-[(3-Pyridyl)methyl]-2-(3-hydroxyphenyl) -3-pyrrolidinyl}-4-hexenoic acid sodium salt], in test [1], the ED50 came to 0.03 mg/kg. Besides, the Kb at guinea pig trachea is 0.0309 µM. Regarding `O=C([O-])CC/C=C\C[C@@H]1CCN(S(=O)(=O)c2ccc(F)cc2)[C@H]1c1ccccc1.[Na+]` [Example 4, (4Z)-6-[(2α,3α)-1-(4-Fluorophenylsulfonyl)-2-phenyl-3-pyrrolidinyl]-4-hexenoic acid sodium salt], the “IC50, dose of antagonist that inhibits by 50% the increase in tracheal pressure caused by U46619” value in test [1] was 0.7 mg/kg.

Source of the values: US5296494A, “Pyrrolidine compounds having thromboxane A2 receptor antagonistic activity and thromboxane A2 synthase inhibiting activity” (Adir et Compagnie, priority 1991, dated 1994).
